Results from US20140005163A1 (NOVARTIS AG, priority 2010, published 2014).

Test system: S6 Ribosomal Protein phosphorylation Ser235/236 in TSC1 null mouse embryo fibroblast (MEF) cells
Assay: Reverse protein array assay, S6 Ribosomal Protein phosphorylation Ser235/236 in TSC1 null MEF cells
Type: cell-based
Settings: 1 h, pS6 ribosomal protein Ser235/236, 60 minutes incubation, read-out: p-S6 IC50
Summary of the method: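 TSC1−/− MEFs, seeded and held ≥20 h at 37 °C/5% CO2, were exposed to 8-step serial compound dilutions (0.02% DMSO final; DMSO vehicle control) for 60 min at 37 °C. Cells were then lysed on ice for 10 min and lysates spotted onto reverse protein array chips.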

| Structure (SMILES) | IC50 |
| --- | --- |
| CN(C)c1ncc(-c2ccc3ncc4c(c3c2)n(-c2cn(C)nc2Cl)c(=O)n4C)cn1 [Example 6.3, 1-(3-Chloro-1-methyl-1H-pyrazol-4-yl)-8-(2-dimethylamino-pyrimidin-5-yl)-3-methyl-1,3-dihydro-imidazo[4,5-c]quinolin-2-one] | 8 nM |
| Cc1nn(C)cc1-n1c(=O)n(C)c2cnc3ccc(-c4cnc(N)c(C(F)(F)F)c4)cc3c21 [Example 25.1, 8-(6-Amino-5-trifluoromethyl-pyridin-3-yl)-1-(1,3-dimethyl-1H-pyrazol-4-yl)-3-methyl-1,3-dihydro-imidazo[4,5-c]quinolin-2-one] | 1 nM |
| Cc1cc(-n2c(=O)n(C)c3cnc4ccc(-c5cnc(N)c(C(F)(F)F)c5)cc4c32)n(C)n1 [Example 25.6, 8-(6-Amino-5-trifluoromethyl-pyridin-3-yl)-1-(2,5-dimethyl-2H-pyrazol-3-yl)-3-methyl-1,3-dihydro-imidazo[4,5-c]quinolin-2-one] | 1 nM |
| CC(C)Oc1cncc(-c2ccc3ncc4c(c3c2)n(-c2cn(C)nc2Cl)c(=O)n4C)c1 [Example 58.2, 1-(3-Chloro-1-methyl-1H-pyrazol-4-yl)-8-(5-isopropoxy-pyridin-3-yl)-3-methyl-1,3-dihydro-imidazo[4,5-c]quinolin-2-one] | 4 nM |
| Cc1nn(C)cc1-n1c(=O)n(C)c2cnc3ccc(-c4cncc(OC5CCC5)c4)cc3c21 [Example 60.1, 8-(5-Cyclobutoxy-pyridin-3-yl)-1-(1,3-dimethyl-1H-pyrazol-4-yl)-3-methyl-1,3-dihydro-imidazo[4,5-c]quinolin-2-one] | 1 nM |
| Cc1nn(C)cc1-n1c(=O)n(C)c2cnc3ccc(-c4cccc(OC(C)C)c4)cc3c21 [Example 82, 1-(1,3-Dimethyl-1H-pyrazol-4-yl)-8-(3-isopropoxy-phenyl)-3-methyl-1,3-dihydro-imidazo[4,5-c]quinolin-2-one] | 17 nM |
| CCN(CC)c1cncc(-c2ccc3ncc4c(c3c2)n(-c2cn(C)nc2C)c(=O)n4C)c1 [Example 95, 8-(5-Diethylamino-pyridin-3-yl)-1-(1,3-dimethyl-1H-pyrazol-4-yl)-3-methyl-1,3-dihydro-imidazo[4,5-c]quinolin-2-one] | 1 nM |
| Cc1nn(C)cc1-n1c(=O)n(C)c2cnc3ccc(-c4ccc(N5CCCC5)nc4)cc3c21 [Example 97, 1-(1,3-Dimethyl-1H-pyrazol-4-yl)-3-methyl-8-(6-pyrrolidin-1-yl-pyridin-3-yl)-1,3-dihydro-imidazo[4,5-c]quinolin-2-one] | 3 nM |
| CNc1ncc(-c2ccc3ncc4c(c3c2)n(-c2cn(C)nc2Cl)c(=O)n4C)cc1C [Example 119, 1-(3-Chloro-1-methyl-1H-pyrazol-4-yl)-3-methyl-8-(5-methyl-6-methylamino-pyridin-3-yl)-1,3-dihydro-imidazo[4,5-c]quinolin-2-one] | 1 nM |
| CNc1ncc(-c2ccc3ncc4c(c3c2)n(-c2cn(C(C)C)nc2C)c(=O)n4C)cc1C(F)(F)F [Example 144.2, 1-(1-Isopropyl-3-methyl-1H-pyrazol-4-yl)-3-methyl-8-(6-methylamino-5-trifluoromethyl-pyridin-3-yl)-1,3-dihydro-imidazo[4,5-c]quinolin-2-one] | 1 nM |
| CCNc1ncc(-c2ccc3ncc4c(c3c2)n(-c2cn(C)nc2C)c(=O)n4C)cc1C(F)(F)F [Example 145.2, 1-(1,3-Dimethyl-1H-pyrazol-4-yl)-8-(6-ethylamino-5-trifluoromethyl-pyridin-3-yl)-3-methyl-1,3-dihydro-imidazo[4,5-c]quinolin-2-one] | 0.94 nM |
| CCn1cc(-n2c(=O)n(C)c3cnc4ccc(-c5cnc(N)c(Cl)c5)cc4c32)c(C)n1 [Example 148.3, 8-(6-Amino-5-chloro-pyridin-3-yl)-1-(1-ethyl-3-methyl-1H-pyrazol-4-yl)-3-methyl-1,3-dihydro-imidazo[4,5-c]quinolin-2-one] | 1 nM |
| Cc1cc(-n2c(=O)n(C)c3cnc4ccc(-c5cnc(F)c(N)c5)cc4c32)n(C)n1 [Example 149.3, 8-(5-Amino-6-fluoro-pyridin-3-yl)-1-(2,5-dimethyl-2H-pyrazol-3-yl)-3-methyl-1,3-dihydro-imidazo[4,5-c]quinolin-2-one] | 6.94 nM |
| Cc1nn(C(C)C)cc1-n1c(=O)n(C)c2cnc3ccc(-c4cnc(Cl)c(N)c4)cc3c21 [Example 152.1, 8-(5-Amino-6-chloro-pyridin-3-yl)-1-(1-isopropyl-3-methyl-1H-pyrazol-4-yl)-3-methyl-1,3-dihydro-imidazo[4,5-c]quinolin-2-one] | 2 nM |
| Cc1nn(C)c(C)c1-n1c(=O)n(C)c2cnc3ccc(-c4cnc(Cl)c(N)c4)cc3c21 [Example 152.3, 8-(5-Amino-6-chloro-pyridin-3-yl)-3-methyl-1-(1,3,5-trimethyl-1H-pyrazol-4-yl)-1,3-dihydro-imidazo[4,5-c]quinolin-2-one] | 20 nM |
| CCOCc1cc(-c2ccc3ncc4c(c3c2)n(-c2cn(C(C)C)nc2C)c(=O)n4C)cnc1N [Example 166.3, 8-(6-Amino-5-ethoxymethyl-pyridin-3-yl)-1-(1-isopropyl-3-methyl-1H-pyrazol-4-yl)-3-methyl-1,3-dihydro-imidazo[4,5-c]quinolin-2-one] | 5 nM |
| CCOCc1cc(-c2ccc3ncc4c(c3c2)n(-c2cn(C)nc2Cl)c(=O)n4C)cnc1N [Example 166.4, 8-(6-Amino-5-ethoxymethyl-pyridin-3-yl)-1-(3-chloro-1-methyl-1H-pyrazol-4-yl)-3-methyl-1,3-dihydro-imidazo[4,5-c]quinolin-2-one] | 1 nM |
| Cc1nn(C(C)C)cc1-n1c(=O)n(C)c2cnc3ccc(-c4cnc5c(c4)COC(=O)N5C)cc3c21 [Example 170, 1-(1-Isopropyl-3-methyl-1H-pyrazol-4-yl)-3-methyl-8-(1-methyl-2-oxo-1,4-dihydro-2H-pyrido[2,3-d][1,3]oxazin-6-yl)-1,3-dihydro-imidazo[4,5-c]quinolin-2-one] | 79 nM |
| Cc1nn(C)cc1-n1c(=O)n(C)c2cnc3ccc(-c4cncc(N(C)C5CCC5)c4)cc3c21 [Example 174, 8-[5-(Cyclobutyl-methyl-amino)-pyridin-3-yl]-1-(1,3-dimethyl-1H-pyrazol-4-yl)-3-methyl-1,3-dihydro-imidazo[4,5-c]quinolin-2-one] | 3 nM |
| Cc1cc(-n2c(=O)n(C)c3cnc4ccc(-c5cnc(C)c(O)c5)cc4c32)n(C)n1 [Example 185.2, 1-(2,5-Dimethyl-2H-pyrazol-3-yl)-8-(5-hydroxy-6-methyl-pyridin-3-yl)-3-methyl-1,3-dihydro-imidazo[4,5-c]quinolin-2-one] | 32 nM |
| [2H]C([2H])([2H])OCc1ncc(-c2ccc3ncc4c(c3c2)n(-c2cn(C)nc2C)c(=O)n4C)cc1OCC [Example 198, 1-(1,3-Dimethyl-1H-pyrazol-4-yl)-8-(5-ethoxy-6-trideuteromethoxymethyl-pyridin-3-yl)-3-methyl-1,3-dihydro-imidazo[4,5-c]quinolin-2-one] | 3 nM |
| CCn1cc(-n2c(=O)n(C)c3cnc4ccc(-c5cncc(C(C)(C)C#N)c5)cc4c32)c(C)n1 [Example 220.2, 2-{5-[1-(1-Ethyl-3-methyl-1H-pyrazol-4-yl)-3-methyl-2-oxo-2,3-dihydro-1H-imidazo[4,5-c]quinolin-8-yl]-pyridin-3-yl}-2-methyl-propionitrile] | 3 nM |
